{"source": "patent US7776566B2", "about": "“Method for producing purine nucleoside by fermentation” (priority 1997, dated 2010)", "type_in_all_cases": "biochemical, E. coli", "key": {"[1]": {"molecular_target": "T1, PRPP synthetase (Prs) D128A (Escherichia coli, UniProt P0A717, D129A)", "T1 construct": "made in house; host or cells: E. coli JM109 (crude enzyme extract)", "test": "PRPP synthetase activity of crude enzyme extracts and inhibition by ADP (mutant prsDA)", "conditions": "mutant type", "experimental": "A prs fragment was excised from the plasmid carrying the prs of about 1 kb cloned in Section 1) by SalI and SphI digestion, and inserted between the SalI and SphI sites of the multi-cloning site of a plasmid for introducing mutation, pKF19k (Takara Shuzo) to obtain the target clone (pKFprs). […] It is also described that the enzyme whose Asp (D) at position 128 is mutated to Ala (A) is partially desensitized. Therefore, the following synthetic DNA primer was prepared for gene substitution realizing mutation of Asp (D) at position 128 PRPP synthetase (Prs) to Ala (A), and pKFprs was subjected to site-directed mutagenesis according to the protocol of Site-directed Mutagenesis System Mutan-Super Express Km (Takara Shuzo) to introduce a site-directed mutation into the pKFprs. […]\nRecombinant bacteria obtained by transforming E. coli JM109 cells with the above four plasmids were cultured in LB liquid medium for eight hours, and collected, and crude enzyme extracts were prepared from them. The PRPP synthetase activity of the extracts and degrees of inhibition by ADP were measured according to the method of K. F. Jensen et al. (Analytical Biochemistry, 98, 254-263 (1979)) which was partially modified. Specifically, [a-^32P]ATP was used as the substrate and [^32P]AMP produced by the reaction was measured."}, "[2]": {"molecular_target": "T2, PRPP amidotransferase (PurF) K326Q (Escherichia coli, UniProt P0AG16, K327Q)", "T2 construct": "made in house; host or cells: E. coli JM109 (crude enzyme extract)", "T2 sequence (P0AG16 2-505 K327Q)": "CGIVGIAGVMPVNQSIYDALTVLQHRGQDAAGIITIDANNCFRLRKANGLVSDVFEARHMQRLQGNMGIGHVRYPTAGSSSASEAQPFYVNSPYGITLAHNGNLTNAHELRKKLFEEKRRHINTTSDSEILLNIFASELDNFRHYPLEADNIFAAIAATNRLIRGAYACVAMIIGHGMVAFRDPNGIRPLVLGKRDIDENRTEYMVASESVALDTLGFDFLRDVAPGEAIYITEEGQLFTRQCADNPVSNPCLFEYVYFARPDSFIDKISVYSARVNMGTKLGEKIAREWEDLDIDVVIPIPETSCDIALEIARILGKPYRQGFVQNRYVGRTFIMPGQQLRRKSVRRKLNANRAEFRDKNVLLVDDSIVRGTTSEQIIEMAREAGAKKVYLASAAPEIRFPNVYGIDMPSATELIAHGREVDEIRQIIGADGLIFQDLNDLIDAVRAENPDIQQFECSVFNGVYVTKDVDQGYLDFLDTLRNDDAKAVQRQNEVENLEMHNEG", "test": "PRPP amidotransferase activity of crude enzyme extracts and inhibition by AMP and GMP (mutant purF, pKFpurFKQ)", "conditions": "JM109/pKFpurFKQ crude extract, activity with None 0.34", "experimental": "(§1) A purF fragment was excised from the plasmid carrying the purF of about 1530 bp cloned into pCRTMII vector (Invitrogen) in Section 1) by digestion with PstI and HindIII, and inserted between the PstI and HindIII sites of the multi-cloning site of a plasmid for introducing mutation, pKF18 (Takara Shuzo) to obtain the target clone (pKFpurF). […] Therefore, the following synthetic DNA primers were prepared for gene substitution realizing mutations of Lys (K) at position 326 and Pro (P) at position 410 of PRPP amidotransferase (PurF) to Gln (Q) and Trp (W), respectively, and pKFpurF was subjected to site-directed mutagenesis according to the protocol of Site-directed Mutagenesis System Mutan-Super Express Km (Takara Shuzo) to introduce a site-directed mutation into the pKFpurF.\n(§2) After the mutagenesis, 6 clones were randomly picked up from each of the resulting transformants, and plasmids were prepared from them. […]\n(§3) Recombinant bacteria obtained by transforming E. coli JM109 cells with the above plasmids were cultured in LB liquid medium for eight hours, and collected, and crude enzyme extracts were prepared from them. The PRPP amidotransferase activity of the extracts and degrees of inhibition by AMP and GMP were measured according to the method of L. J. Messenger (J. Biol. Chem., 254, 3382 (1979))."}, "[3]": {"molecular_target": "T3, PRPP amidotransferase (PurF) K326Q + P410W (Escherichia coli, UniProt P0AG16, K327Q/P411W)", "T3 construct": "made in house; host or cells: E. coli JM109 (crude enzyme extract)", "T3 sequence (P0AG16 2-505 K327Q/P411W)": "as the sequence (P0AG16 2-505 K327Q) above, with P410W counted along it", "test": "PRPP amidotransferase activity of crude enzyme extracts and inhibition by AMP and GMP (mutant purF, pKFpurFKQPW)", "conditions": "JM109/pKFpurFKQPW crude extract, activity with None 0.18", "experimental": "as §1, §2, §3"}, "[4]": {"molecular_target": "T4, PRPP amidotransferase (PurF), wild type (Escherichia coli, UniProt P0AG16)", "T4 construct": "made in house; host or cells: E. coli JM109 (crude enzyme extract)", "T4 sequence (P0AG16 2-505)": "as the sequence (P0AG16 2-505 K327Q) above, with Q326K counted along it", "test": "PRPP amidotransferase activity of crude enzyme extracts and inhibition by AMP and GMP (wild type purF, pKFpurF)", "conditions": "JM109/pKFpurF crude extract, activity with None 0.68", "experimental": "as §3"}}}
{"smiles": "Nc1ncnc2c1ncn2[C@@H]1O[C@H](COP(=O)(O)OP(=O)(O)O)[C@@H](O)[C@H]1O", "note": "[ADP, adenosine diphosphate]", "values": [{"measurement": "PRPP synthetase (Prs) specific activity, 5 mM ADP", "setting": "[1]; JM109/pSTVprsDA, medium copy, activity with None 10.6", "value": "2.7 nmole/min/mg crude enzyme extract"}, {"measurement": "PRPP synthetase (Prs) specific activity, 5 mM ADP", "setting": "[1]; JM109/pUCprsDA, high copy, activity with None 80.8", "value": "20.2 nmole/min/mg crude enzyme extract"}]}
{"smiles": "Nc1ncnc2c1ncn2[C@@H]1O[C@H](COP(=O)(O)O)[C@@H](O)[C@H]1O", "note": "[AMP, adenosine monophosphate]", "values": [{"measurement": "PRPP amidotransferase activity, 10 mM AMP", "setting": "[2]; 10 mM AMP", "value": 0.32, "unit": "µmol/min/mg"}, {"measurement": "PRPP amidotransferase activity, 10 mM AMP", "setting": "[3]; 10 mM AMP", "value": 0.16, "unit": "µmol/min/mg"}, {"measurement": "PRPP amidotransferase activity, 10 mM AMP", "setting": "[4]; 10 mM AMP", "value": 0.48, "unit": "µmol/min/mg"}]}
{"smiles": "Nc1nc2c(ncn2[C@@H]2O[C@H](COP(=O)(O)O)[C@@H](O)[C@H]2O)c(=O)[nH]1", "note": "[GMP, guanosine monophosphate]", "values": [{"measurement": "PRPP amidotransferase activity, 10 mM GMP", "setting": "[2]; 10 mM GMP", "value": 0.33, "unit": "µmol/min/mg"}, {"measurement": "PRPP amidotransferase activity, 10 mM GMP", "setting": "[3]; 10 mM GMP", "value": 0.17, "unit": "µmol/min/mg"}, {"measurement": "PRPP amidotransferase activity, 10 mM GMP", "setting": "[4]; 10 mM GMP", "value": 0.10, "unit": "µmol/min/mg"}]}
